The subject of assay [1] is HCT 116 cells. The assay can be described thus: CellTiter-Glo assay in HCT 116 cells (cell viability). The class given is cell-based. The settings on record: 120 h; HCT 116 human colon carcinoma cells, 5 days incubation, CellTiter-Glo luminescence. The method, then: The CellTiter-Glo™ Luminescent Cell Viability Assay (Promega) is a homogeneous method of determining the number of viable cells in culture based on quantitation of the ATP present, which signals the presence of metabolically active cells.
HCT 116 cells (human colon carcinoma, ATCC-No. CCl-247) were cultivated in RPMI 1640 medium with GlutaMAX™ I (Invitrogen, Cat-No. 61870-010), 2,5% Fetal Calf Serum (FCS, Sigma Cat-No. F4135 (FBS)); 100 Units/ml penicillin/100 μg/ml streptomycin (=Pen/Strep from Invitrogen Cat. No. 15140). For the assay the cells were seeded in 384 well plates, 1000 cells per well, in the same medium. The next day the test compounds were added in various concentrations ranging from 30 μM to 0.0015 μM (10 concentrations, 1:3 diluted). After 5 days the CellTiter-Glo™ assay was done according to the instructions of the manufacturer (CellTiter-Glo™ Luminescent Cell Viability Assay, from Promega). In brief: the cell-plate was equilibrated to room temperature for approximately 30 minutes and than the CellTiter-Glo™ reagent was added. The contents were carefully mixed for 15 minutes to induce cell lysis. After 45 minutes the luminescent signal was measured in Victor 2, (scanning multiwell spectrophotometer, Wallac).
1st. Day: • Medium: RPMI 1640 with GlutaMAX™ I (Invitrogen, Cat-Nr. 61870), 5% FCS (Sigma Cat.-No. F4135), Pen/Strep (Invitrogen, Cat No. 15140). • HCT116 (ATCC-No. CCl-247): 1000 cells in 60 μl per well of 384 well plate (Greiner 781098, μClear-plate white) • After seeding incubate plates 24 h at 37° C., 5% CO2 2nd. Day: Induction (Treatment with Compounds, 10 Concentrations):
In order to achieve a final concentration of 30 μM as highest concentration 3.5 μl of 10 mM compound stock solution were added directly to 163 μl media. Then step e) of the dilution procedure described below, was followed.
In order to achieve the second highest to the lowest concentrations, a serial dilution with dilution steps of 1:3 was followed according to the procedure (a-e) as described here below: • a) for the second highest concentration add 10 μl of 10 mM stock solution of compound to 20 μl dimethylsulfoxide (DMSO) • b) dilute 8×1:3 (always 10 μl to 20 μl DMSO) in this DMSO dilution row (results in 9 wells with concentrations from 3333.3 μM to 0.51 μM) • c) dilute each concentration 1:47.6 (3.5 μl compound dilution to 163 μl media) • e) add 10 μl of every concentration to 60 μl media in the cell plate resulting in final concentration of DMSO: 0.3% in every well and resulting in 10 final concentration of compounds ranging from 30 μM to 0.0015 μM. • Each compound is tested in triplicate. • Incubate 120 h (5 days) at 37° C., 5% CO2
• Add 30 μl CellTiter-Glo™ Reagent (prepared from CellTiter-Glo™ Buffer and CellTiter-Glo™ Substrate (lyophilized) purchased from Promega) per well, • shake 15 minutes at room temperature • incubate further 45 minutes at room temperature without shaking
• Victor 2 scanning multiwell spectrophotometer (Wallac), Luminescence mode (0.5 sec/read, 477 nm) • Determine IC50 using a non-linear curve fit (XLfit software (ID Business Solution Ltd., Guilford, Surrey, UK))

Assay [2] has as its target T1, Aurora A kinase (Homo sapiens, UniProt O14965).
T1 sequence (O14965 1-403 T288D): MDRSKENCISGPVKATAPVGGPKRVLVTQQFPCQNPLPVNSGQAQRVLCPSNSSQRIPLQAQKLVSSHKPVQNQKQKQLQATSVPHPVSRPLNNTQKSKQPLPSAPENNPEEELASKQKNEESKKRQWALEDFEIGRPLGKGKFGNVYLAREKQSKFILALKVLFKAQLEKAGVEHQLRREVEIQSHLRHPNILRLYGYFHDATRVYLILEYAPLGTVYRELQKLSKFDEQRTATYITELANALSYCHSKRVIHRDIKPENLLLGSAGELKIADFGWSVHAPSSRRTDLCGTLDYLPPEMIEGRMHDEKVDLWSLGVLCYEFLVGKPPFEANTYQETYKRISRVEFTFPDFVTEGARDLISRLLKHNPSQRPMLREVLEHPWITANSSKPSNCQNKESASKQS
The assay can be described thus: IC50 determination for inhibitors of Aurora A (ELISA-type kinase assay, GST-Histone H3 substrate). The assay is classed as biochemical. The conditions noted are these: mutant Aurora A kinase, 30 μM ATP, 40 minutes, read-out: IC50 Aurora A kinase inhibition. The method, then: Aurora A is a serine threonine kinase involved in spindle assembly and chromosome segregation.
The assay is a typically ELISA-type assay where substrate (GST-Histone H3) is coupled to the assay-plate and is phosphorylated by the kinase. Phosphorylation is detected by a mouse anti-Phosphopeptid mAb and an HRP-labeled anti-mouse pAb. The assay is validated for IC50-determination.
Kinase activities were measured by Enzyme-Linked Immunosorbent Assay (ELISA): Maxisorp 384-well plates (Nunc) were coated with recombinant fusion protein comprising residues 1-15 of HistoneH3 fused to the N-terminus of Glutathione-S-Transferase. Plates were then blocked with a solution of 1 mg/mL I-block (Tropix cat# T2015—highly purified form of casein) in phosphate-buffered saline. Kinase reactions were carried out in the wells of the ELISA plate by combining an appropriate amount of mutant Aurora A kinase with test compound and 30 μM ATP. The reaction buffer was 10× Kinase Buffer (Cell Signaling cat #9802) supplemented with 1 μg/mL I-block. Reactions were stopped after 40 minutes by addition of 25 mM EDTA. After washing, substrate phosphorylation was detected by addition of anti-phospho-Histone H3 (Ser 10) 6G3 mAb (Cell Signaling cat #9706) and sheep anti-mouse pAb-HRP (Amersham cat# NA931V), followed by colorimetric development with TMB (3,3′,5,5′-tetramethylbenzidine from Kirkegaard & Perry Laboratories). After readout of the absorbance, IC50 values were calculated using a non-linear curve fit (XLfit software (ID Business Solution Ltd., Guilford, Surrey, UK)).
(An ELISA detects its analyte on a solid surface through an enzyme-linked reagent.)

Take `CCN1C(=O)C(C)(C)c2cc3nc(-c4n[nH]c5ccc(-c6nc[nH]n6)cc45)[nH]c3cc21` [Example 1, 5-Ethyl-7,7-dimethyl-2-[5-(1H-[1,2,4]triazol-3-yl)-1H-indazol-3-yl]-5,7-dihydro-3H-imidazo[4,5-f]indol-6-one]: the IC50 is 25 to 1500 nM in assay [1] and 2 nM in assay [2].

Turning to `CCN1C(=O)C(C)(C)c2cc3nc(-c4n[nH]c5cc(-c6ccsc6)ccc45)[nH]c3cc21` [Example 4, 5-Ethyl-7,7-dimethyl-2-(6-thiophen-3-yl-1H-indazol-3-yl)-5,7-dihydro-3H-imidazo[4,5-f]indol-6-one], the IC50 was 25 to 1500 nM in assay [1] and 22 nM in assay [2].

For the compound `CCN1C(=O)C(C)(C)c2cc3nc(-c4n[nH]c5cc(/C=C/c6ccc(F)cc6)ccc45)[nH]c3cc21` [Example 6, 5-Ethyl-2-{6-[(E)-2-(4-fluoro-phenyl)-vinyl]-1H-indazol-3-yl}-7,7-dimethyl-5,7-dihydro-3H-imidazo[4,5-f]indol-6-one], the values for the IC50 in assay [1] and in assay [2] were 25 to 1500 nM and 35 nM, respectively. For the compound `CCN1C(=O)C(C)(C)c2cc3nc(-c4n[nH]c5cc(/C=C/c6ccc(C(F)(F)F)cc6)ccc45)[nH]c3cc21` [Example 11, 5-Ethyl-7,7-dimethyl-2-{6-[(E)-2-(4-trifluoromethyl-phenyl)-vinyl]-1H-indazol-3-yl}-5,7-dihydro-3H-imidazo[4,5-f]indol-6-one], the IC50 in assay [2] stood at 19 nM. Consider `CCN1C(=O)C(C)(C)c2cc3nc(-c4n[nH]c5cc(/C=C/C6CCCCC6)ccc45)[nH]c3cc21` [Example 19, 2-[6-((E)-2-Cyclohexyl-vinyl)-1H-indazol-3-yl]-5-ethyl-7,7-dimethyl-5,7-dihydro-3H-imidazo[4,5-f]indol-6-one], for which the IC50 was 25 to 1500 nM in assay [1] and 58 nM in assay [2].

For the compound `CCN1C(=O)C(C)(C)c2cc3nc(-c4n[nH]c5ccc(-c6cccc(N(C)C)c6)cc45)[nH]c3cc21` [Example 29, 2-[5-(3-Dimethylamino-phenyl)-1H-indazol-3-yl]-5-ethyl-7,7-dimethyl-5,7-dihydro-3H-imidazo[4,5-f]indol-6-one], the IC50 in assay [1] is 25 to 1500 nM; in assay [2] it was 6 nM.

On to `CCN1C(=O)C(C)(C)c2cc3nc(-c4n[nH]c5cc(C#Cc6ccccc6)ccc45)[nH]c3cc21` [Example 38, 5-Ethyl-7,7-dimethyl-2-(6-phenylethynyl-1H-indazol-3-yl)-5,7-dihydro-3H-imidazo[4,5-f]indol-6-one], for which the concentration for half-maximal inhibition (IC50) was 25 to 1500 nM in assay [1] and 9 nM in assay [2].

For orientation: IC50 means the concentration at which inhibition is half-maximal.

Values taken from patent publication US20090291968A1, “SUBSTITUTED INDAZOLE DERIVATIVES, THEIR MANUFACTURE AND USE AS PHARMACEUTICAL AGENTS” (priority 2006, published 2009).
